From patent US9125913B2, “Bcl-2-selective apoptosis-inducing agents for the treatment of cancer and immune diseases” (AbbVie Inc., priority 2008, dated 2015)

These molecules were tested on GST-Bcl-2 (assay: TR-FRET binding assay, Bcl-2). Conditions: TR-FRET Ki values.
Method in brief: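 Compounds serially diluted in DMSO from 50 μM (2× starting concentration, 10% DMSO), mixed with GST-tagged protein, F-Bak peptide probe and Tb-labeled antibody, incubated 3 h at room temperature.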

Row | Structure (SMILES) | Binding selectivity ratio (Bcl-XL Ki/Bcl-2 Ki)
1 | CC1(C)CCC(CN2CCN(c3ccc(C(=O)NS(=O)(=O)c4ccc(NCC(F)(F)F)c([N+](=O)[O-])c4)c(Oc4cccc5[nH]ccc45)c3)CC2)=C(c2ccc(Cl)cc2)C1 [EXAMPLE 343, 4-(4-{[2-(4-chlorophenyl)-4,4-dimethylcyclohex-1-en-1-yl]methyl}piperazin-1-yl)-2-(1H-indol-4-yloxy)-N-({3-nitro-4-[(2,2,2-trifluoroethyl)amino]phenyl}sulfonyl)benzamide] | >1145.9
2 | CC1(C)CCC(CN2CCN(c3ccc(C(=O)NS(=O)(=O)c4ccc(NCC(F)(F)F)c([N+](=O)[O-])c4)c(Oc4ccc5[nH]ccc5c4)c3)CC2)=C(c2ccc(Cl)cc2)C1 [EXAMPLE 344, 4-(4-{[2-(4-chlorophenyl)-4,4-dimethylcyclohex-1-en-1-yl]methyl}piperazin-1-yl)-2-(1H-indol-5-yloxy)-N-({3-nitro-4-[(2,2,2-trifluoroethyl)amino]phenyl}sulfonyl)benzamide] | 1576.9
3 | CC1(C)CCC(CN2CCN(c3ccc(C(=O)NS(=O)(=O)c4cccc(C(=O)NCC5CCOCC5)c4)c(Oc4ccc5[nH]ccc5c4)c3)CC2)=C(c2ccc(Cl)cc2)C1 [EXAMPLE 345, 4-(4-{[2-(4-chlorophenyl)-4,4-dimethylcyclohex-1-en-1-yl]methyl}piperazin-1-yl)-2-(1H-indol-5-yloxy)-N-[(3-{[(tetrahydro-2H-pyran-4-ylmethyl)amino]carbonyl}phenyl)sulfonyl]benzamide] | >575.9
4 | CC1(C)CCC(CN2CCN(c3ccc(C(=O)NS(=O)(=O)c4ccc(OC[C@H]5COCCO5)c([N+](=O)[O-])c4)c(Oc4ccc5[nH]ccc5c4)c3)CC2)=C(c2ccc(Cl)cc2)C1 [EXAMPLE 346, 4-(4-{[2-(4-chlorophenyl)-4,4-dimethylcyclohex-1-en-1-yl]methyl}piperazin-1-yl)-N-({4-[(2R)-1,4-dioxan-2-ylmethoxy]-3-nitrophenyl}sulfonyl)-2-(1H-indol-5-yloxy)benzamide] | 11405.2
5 | CC1(C)CCC(CN2CCN(c3ccc(C(=O)NS(=O)(=O)c4ccc(OC[C@@H]5COCCO5)c([N+](=O)[O-])c4)c(Oc4ccc5[nH]ccc5c4)c3)CC2)=C(c2ccc(Cl)cc2)C1 [EXAMPLE 347, 4-(4-{[2-(4-chlorophenyl)-4,4-dimethylcyclohex-1-en-1-yl]methyl}piperazin-1-yl)-N-({4-[(2S)-1,4-dioxan-2-ylmethoxy]-3-nitrophenyl}sulfonyl)-2-(1H-indol-5-yloxy)benzamide] | 1256.7
6 | CC1(C)CCC(CN2CCN(c3ccc(C(=O)NS(=O)(=O)c4ccc(NCCCN5CCOCC5)c(S(=O)(=O)C(F)(F)F)c4)c(Oc4ccc5[nH]ccc5c4)c3)CC2)=C(c2ccc(Cl)cc2)C1 [EXAMPLE 348, 4-(4-{[2-(4-chlorophenyl)-4,4-dimethylcyclohex-1-en-1-yl]methyl}piperazin-1-yl)-2-(1H-indol-5-yloxy)-N-({4-[(3-morpholin-4-ylpropyl)amino]-3-[(trifluoromethyl)sulfonyl]phenyl}sulfonyl)benzamide] | 97.1
7 | CC1(C)CCC(CN2CCN(c3ccc(C(=O)NS(=O)(=O)c4ccc(NCCCN5CCOCC5)c(S(=O)(=O)C(F)(F)F)c4)c(Oc4cccc5[nH]ccc45)c3)CC2)=C(c2ccc(Cl)cc2)C1 [EXAMPLE 349, 4-(4-{[2-(4-chlorophenyl)-4,4-dimethylcyclohex-1-en-1-yl]methyl}piperazin-1-yl)-2-(1H-indol-4-yloxy)-N-({4-[(3-morpholin-4-ylpropyl)amino]-3-[(trifluoromethyl)sulfonyl]phenyl}sulfonyl)benzamide] | 51.9
